Patent publication US20040049056A1 (priority 2000, published 2004)
Like-named read-outs stand apart in the source and are kept apart here.

What was measured:
Pyricularia oryzae = assay type: cell-based
Fusarium nivale = assay type: cell-based
Septoria tritici = assay type: cell-based
Pythium aphanidermatum = assay type: cell-based
Pytophthora infestans = assay type: cell-based
plant pathogenic fungi = experiment: Assay for antifungal activity of esculetin compounds (method similar to Assay example 1); assay type: cell-based
Source text: The activities of the following esculetin compounds was confirmed by a method similar to Assay example 1.

plants = experiment: Assay for herbicidal activity of esculetin compounds (method similar to Assay example 2); assay type: in vivo
Source text: The activities of the following esculetin compounds was confirmed by a method similar to Assay example 2.

Structure (SMILES)	Rate of growth suppression (%) P.o (Pyricularia oryzae; 10 mg/L, 3 DAT)	Rate of growth suppression (%) F.niv (Fusarium nivale)	Rate of growth suppression (%) S.t (Septoria tritici)	Rate of growth suppression (%) P.a (Pythium aphanidermatum)	Rate of growth suppression (%) P.i (Pytophthora infestans; 10 mg/L, 4 DAT)	melting point	Antifungal activity (plant pathogenic fungi)	Herbicidal activity (plants)	Rate of growth suppression (%) P.o (Pyricularia oryzae)	Rate of growth suppression (%) P.i (Pytophthora infestans)
CC1(C)Oc2cc(O)c(C=O)cc2O1 [Compound (e), 2,2-dimethyl-5-formyl-6-hydroxy-1,3-benzodioxol]	+ (10 to 60%)	+ (key: −: less than 10%; +: 10 to 60%; ++: more than 60%)	+ (key: −: less than 10%; +: 10 to 60%; ++: more than 60%)	+ (key: −: less than 10%; +: 10 to 60%; ++: more than 60%)	+ (10 to 60%)	104 to 105 °C	–	–	–	–
CC1(C)Oc2cc3ccc(=O)oc3cc2O1 [esculetin acetonide]	–	–	–	–	–	–	confirmed	confirmed	–	–
O=Cc1cc(O)c(OCc2ccccc2)cc1O [Compound (b), 2,5-dihydroxy-4-benzyloxybenzaldehyde]	+ (10 to 60%)	++ (key: −: less than 10%; +: 10 to 60%; ++: more than 60%)	+ (key: −: less than 10%; +: 10 to 60%; ++: more than 60%)	++ (key: −: less than 10%; +: 10 to 60%; ++: more than 60%)	+ (10 to 60%)	–	–	–	–	–
O=c1ccc2cc(O)c(OCc3ccccc3)cc2o1 [7-benzyloxy-6-hydroxycoumarin]	–	–	–	–	–	–	confirmed	confirmed	–	–
Oc1ccc(O)c(OCc2ccccc2)c1 [Compound (a), 2-benzyloxy-1,4-hydroquinone]	–	+ (key: −: less than 10%; +: 10 to 60%; ++: more than 60%)	+ (key: −: less than 10%; +: 10 to 60%; ++: more than 60%)	+ (key: −: less than 10%; +: 10 to 60%; ++: more than 60%)	–	–	–	–	++ (key: −: less than 10%; +: 10 to 60%; ++: more than 60%)	+ (key: −: less than 10%; +: 10 to 60%; ++: more than 60%)
O=c1ccc2cc3c(cc2o1)OCO3 [methylenedioxycoumarin]	–	–	–	–	–	–	confirmed	confirmed	–	–
O=Cc1cc2c(cc1O)OCO2 [Compound (d), 4,5-methylenedioxysalicylaldehyde]	–	+ (key: −: less than 10%; +: 10 to 60%; ++: more than 60%)	+ (key: −: less than 10%; +: 10 to 60%; ++: more than 60%)	+ (key: −: less than 10%; +: 10 to 60%; ++: more than 60%)	–	125 to 126 °C	–	–	+ (key: −: less than 10%; +: 10 to 60%; ++: more than 60%)	+ (key: −: less than 10%; +: 10 to 60%; ++: more than 60%)
CC(=O)Oc1cc(OCc2ccccc2)c(OC(C)=O)cc1C=O [Compound (c), 2,5-diacetoxy-4-benzyloxybenzaldehyde]	+ (10 to 60%)	++ (key: −: less than 10%; +: 10 to 60%; ++: more than 60%)	++ (key: −: less than 10%; +: 10 to 60%; ++: more than 60%)	+ (key: −: less than 10%; +: 10 to 60%; ++: more than 60%)	+ (10 to 60%)	–	–	–	–	–
